Measurements reported in ChEMBL document CHEMBL3124761, “Synthesis and biological evaluation of N,N'-squaramides with high in vivo efficacy and low toxicity: toward a low-cost drug against Chagas disease” (J Med Chem, 2014).
Active and inactive are the calls of the source. The calls are words filed in the database; no cut-off is given here.

Tests used:
Trypanosoma cruzi [1] = assay: Antitrypanosomal activity against amastigote stage of Trypanosoma cruzi IRHOD/CO/2008/SN3 infected in African green monkey Vero cells assessed as parasite growth inhibition after 72 hrs by Giemsa staining-based microscopic analysis; assay type: functional, organism-based; conditions: IRHOD/CO/2008/SN3, Vero
Trypanosoma cruzi [2] = assay: Antitrypanosomal activity against epimastigote stage of Trypanosoma cruzi IRHOD/CO/2008/SN3 assessed as change in excreted acetate level at IC25 after 96 hrs by 1H NMR analysis relative to control; assay type: functional
Trypanosoma cruzi [3] = assay: Antitrypanosomal activity against epimastigote stage of Trypanosoma cruzi IRHOD/CO/2008/SN3 assessed as change in excreted pyruvate level at IC25 after 96 hrs by 1H NMR analysis relative to control; assay type: functional
Mus musculus [4] = assay: Toxicity in BALB/c albino mouse infected with blood trypomastigote stage of Trypanosoma cruzi assessed as change in total bilirubin level in serum at 25 mg/kg, ip administered on day 7 to 12 post-infection measured after day 120 relative to control; assay type: organism-based; design: dose 25 mg/kg, route intraperitoneal; conditions: in vivo
Mus musculus [5] = assay: Toxicity in BALB/c albino mouse infected with blood trypomastigote stage of Trypanosoma cruzi assessed as change in LDH level in serum at 25 mg/kg, ip administered on day 7 to 12 post-infection measured after day 120 relative to control; assay type: organism-based; design: dose 25 mg/kg, route intraperitoneal; conditions: in vivo
Trypanosoma cruzi [6] = assay: Trypanocidal activity against metacyclic trypomastigote stage of Trypanosoma cruzi infected in BALB/c albino mouse acute chagas disease model assessed as inhibition of parasitemia at 25 mg/kg, ip administered on day 7 to 12 post-infection measured every 2 days until day 40 […] relative to control; assay type: functional; conditions: route intraperitoneal
Mus musculus [7] = assay: Toxicity in BALB/c albino mouse infected with blood trypomastigote stage of Trypanosoma cruzi assessed as change in urea level in serum at 25 mg/kg, ip administered on day 7 to 12 post-infection measured after day 120 relative to control; assay type: organism-based; design: dose 25 mg/kg, route intraperitoneal; conditions: in vivo
Trypanosoma cruzi [8] = assay: Antitrypanosomal activity against epimastigote stage of Trypanosoma cruzi IRHOD/CO/2008/SN3 assessed as change in excreted lactate level at IC25 after 96 hrs by 1H NMR analysis relative to control; assay type: functional
Trypanosoma cruzi [9] = assay: Antitrypanosomal activity against epimastigote stage of Trypanosoma cruzi IRHOD/CO/2008/SN3 assessed as mortality at IC25 after 72 hrs by TEM analysis; assay type: functional, organism-based
Trypanosoma cruzi [10] = assay: Antitrypanosomal activity against trypomastigote stage of Trypanosoma cruzi IRHOD/CO/2008/SN3 assessed as reduction of trypomastigote number per mililiter of culture medium at IC25 preincubated for 12 hrs followed by compound washout measured every 48 hrs for 10 days by Neubauer hemocytometric chamber analysis relative to control; assay type: functional
[11] = Selectivity index, ratio of IC50 for African green monkey Vero cells to IC50 for amastigote stage of Trypanosoma cruzi IRHOD/CO/2008/SN3 infected in African green monkey Vero cells; assay type: toxicity, cell-based; conditions: read-out: Ratio IC50
Trypanosoma cruzi [12] = assay: Antitrypanosomal activity against epimastigote stage of Trypanosoma cruzi IRHOD/CO/2008/SN3 assessed as appearance of enormous reservosomes at IC25 after 72 hrs by TEM analysis; assay type: functional, organism-based
Vero = assay: Cytotoxicity against African green monkey Vero cells assessed as cell viability after 72 hrs by propidium iodide/fluorescein diacetate staining-based flow cytometric analysis; conditions: Chlorocebus sabaeus
Trypanosoma cruzi [13] = assay: Antitrypanosomal activity against amastigote stage of Trypanosoma cruzi IRHOD/CO/2008/SN3 infected in African green monkey Vero cells assessed as reduction of amastigote number per cell at IC25 preincubated for 12 hrs followed by compound washout measured every 48 hrs for 10 days by Neubauer hemocytometric chamber analysis relative to control; assay type: functional
Mus musculus [14] = assay: Toxicity in BALB/c albino mouse infected with blood trypomastigote stage of Trypanosoma cruzi assessed as change in ALT/GPT level in serum at 25 mg/kg, ip administered on day 7 to 12 post-infection measured after day 120 relative to control; assay type: organism-based; design: dose 25 mg/kg, route intraperitoneal; conditions: in vivo
Trypanosoma cruzi [15] = assay: Antitrypanosomal activity against amastigote stage of Trypanosoma cruzi IRHOD/CO/2008/SN3 infected in African green monkey Vero cells assessed as decrease in infection rate at IC25 preincubated for 12 hrs followed by compound washout measured every 48 hrs for 10 days by Neubauer hemocytometric chamber analysis relative to control; assay type: functional
Trypanosoma cruzi [16] = assay: Antitrypanosomal activity against epimastigote stage of Trypanosoma cruzi IRHOD/CO/2008/SN3 assessed as change in excreted succinate level at IC25 after 96 hrs by 1H NMR analysis relative to control; assay type: functional
Trypanosoma cruzi [17] = assay: Antitrypanosomal activity against epimastigote stage of Trypanosoma cruzi IRHOD/CO/2008/SN3 assessed as appearance of swollen structure filled with empty vacuoles at IC25 after 72 hrs by TEM analysis; assay type: functional, organism-based
Mus musculus [18] = assay: Toxicity in BALB/c albino mouse infected with blood trypomastigote stage of Trypanosoma cruzi assessed as increase in AST/GOT level in serum at 25 mg/kg, ip administered on day 7 to 12 post-infection measured after day 120 relative to control; assay type: organism-based; design: dose 25 mg/kg, route intraperitoneal; conditions: in vivo
Trypanosoma cruzi [19] = assay: Antitrypanosomal activity against epimastigote stage of Trypanosoma cruzi IRHOD/CO/2008/SN3 assessed as change in excreted alanine level at IC25 after 96 hrs by 1H NMR analysis relative to control; assay type: functional
Trypanosoma cruzi [20] = assay: Trypanocidal activity against metacyclic trypomastigote stage of Trypanosoma cruzi infected in BALB/c albino mouse acute chagas disease model assessed as reduction of parasite burden at 25 mg/kg, ip administered on day 7 to 12 post-infection measured on day 14 by ELISA; assay type: functional, organism-based; design: dose 25 mg/kg
Trypanosoma cruzi [21] = assay: Antitrypanosomal activity against epimastigote stage of Trypanosoma cruzi IRHOD/CO/2008/SN3 assessed as formation of electron-dense vacuoles at IC25 after 72 hrs by TEM analysis; assay type: functional, organism-based
[22] = Selectivity index, ratio of IC50 for African green monkey Vero cells to IC50 for epimastigote stage of Trypanosoma cruzi IRHOD/CO/2008/SN3; assay type: toxicity, cell-based; conditions: read-out: Ratio IC50
Mus musculus [23] = assay: Toxicity in BALB/c albino mouse infected with blood trypomastigote stage of Trypanosoma cruzi assessed as change in alkaline phosphatase level in serum at 25 mg/kg, ip administered on day 7 to 12 post-infection measured after day 120 relative to control; assay type: organism-based; design: dose 25 mg/kg, route intraperitoneal; conditions: in vivo
Mus musculus [24] = assay: Toxicity in BALB/c albino mouse assessed as mortality at 25 mg/kg, ip administered for 5 days; assay type: organism-based; design: dose 25 mg/kg, route intraperitoneal; conditions: in vivo, 120 h
Trypanosoma cruzi [25] = assay: Antitrypanosomal activity against epimastigote stage of Trypanosoma cruzi IRHOD/CO/2008/SN3 assessed as parasite growth inhibition after 72 hrs by Neubauer hemocytometric chamber analysis; assay type: functional, organism-based; conditions: IRHOD/CO/2008/SN3, 72 h
Mus musculus [26] = assay: Toxicity in BALB/c albino mouse infected with blood trypomastigote stage of Trypanosoma cruzi assessed as increase in uric acid level in serum at 25 mg/kg, ip administered on day 7 to 12 post-infection measured after day 120 relative to control; assay type: organism-based; design: dose 25 mg/kg, route intraperitoneal; conditions: in vivo
Mus musculus [27] = assay: Toxicity in BALB/c albino mouse infected with blood trypomastigote stage of Trypanosoma cruzi assessed as increase in creatinephophokinase-MB level in serum at 25 mg/kg, ip administered on day 7 to 12 post-infection measured after day 120 relative to control; assay type: organism-based; design: dose 25 mg/kg, route intraperitoneal; conditions: in vivo
Mus musculus [28] = assay: Toxicity in BALB/c albino mouse infected with blood trypomastigote stage of Trypanosoma cruzi assessed as increase in total bilirubin level in serum at 25 mg/kg, ip administered on day 7 to 12 post-infection measured after day 120 relative to control; assay type: organism-based; design: dose 25 mg/kg, route intraperitoneal; conditions: in vivo
Mus musculus [29] = assay: Toxicity in BALB/c albino mouse infected with blood trypomastigote stage of Trypanosoma cruzi assessed as decrease in creatinephophokinase-MB level in serum at 25 mg/kg, ip administered on day 7 to 12 post-infection measured after day 120 relative to control; assay type: organism-based; design: dose 25 mg/kg, route intraperitoneal; scale not given: the % may be the effect or the level left; conditions: in vivo
Mus musculus [30] = assay: Toxicity in BALB/c albino mouse infected with blood trypomastigote stage of Trypanosoma cruzi assessed as decrease in ALT/GPT level in serum at 25 mg/kg, ip administered on day 7 to 12 post-infection measured after day 120 relative to control; assay type: organism-based; design: dose 25 mg/kg, route intraperitoneal; scale not given: the % may be the effect or the level left; conditions: in vivo
Mus musculus [31] = assay: Toxicity in BALB/c albino mouse infected with blood trypomastigote stage of Trypanosoma cruzi assessed as change in uric acid level in serum at 25 mg/kg, ip administered on day 7 to 12 post-infection measured after day 120 relative to control; assay type: organism-based; design: dose 25 mg/kg, route intraperitoneal; conditions: in vivo

`CN(CCCNc1c(NCCC[N+](C)(C)C)c(=O)c1=O)CCCNc1c(NCCC[N+](C)(C)C)c(=O)c1=O.[I-].[I-]` showed an IC50 (Trypanosoma cruzi [1]) of 17.1 µM, an Activity (Trypanosoma cruzi [2]) of -12% and an Activity (Trypanosoma cruzi [3]) of 37.4%. It also gave an Activity (Mus musculus [4]) of less than 10%, an Activity (Mus musculus [5]) of less than 10% and an inhibition in vivo at 25 mg/kg (Trypanosoma cruzi [6]) of 37%. For the same molecule, the Activity (Mus musculus [7]) was less than 10%, the Activity (Trypanosoma cruzi [8]) was -20.6% and the Activity (Trypanosoma cruzi [9]) was “Active”. The “inhibition (INH)” value (Trypanosoma cruzi [10]) was 49%, the selectivity ratio [11] was 17.5 and the Activity (Trypanosoma cruzi [12]) was “Active”. For the same molecule, the IC50 (Vero) was 301 µM, the “inhibition (INH)” value (Trypanosoma cruzi [13]) was 30% and the Activity (Mus musculus [14]) was less than 10%. For the same molecule, the “inhibition (INH)” value (Trypanosoma cruzi [15]) was 30%, the Activity (Trypanosoma cruzi [16]) was -21.2% and the Activity (Trypanosoma cruzi [17]) was “Active”. The Activity (Mus musculus [18]) was 40%, the Activity (Trypanosoma cruzi [19]) was -13.3% and the Activity (Trypanosoma cruzi [20]) was “Active”. For the same molecule, the Activity (Trypanosoma cruzi [21]) was “Active”, the selectivity ratio [22] was 16.2 and the Activity (Mus musculus [23]) was less than 10%. For the same molecule, the Activity (Mus musculus [24]) was “Non-toxic”, the IC50 (Trypanosoma cruzi [25]) was 18.5 µM and the Activity (Mus musculus [26]) was 30%. It also gave an Activity (Mus musculus [27]) of 30%.
In the case of `CCCCNc1c(NCCCN(CCCC)CCCC)c(=O)c1=O`, the IC50 (Trypanosoma cruzi [1]) is reported as 6 µM, the Activity (Trypanosoma cruzi [2]) is reported as 8.5% and the Activity (Trypanosoma cruzi [3]) is reported as -12%. The Activity (Mus musculus [5]) was less than 10%, the inhibition in vivo at 25 mg/kg (Trypanosoma cruzi [6]) was 21% and the Activity (Mus musculus [7]) was less than 10%. For the same molecule, the Activity (Trypanosoma cruzi [8]) was -22.3%, the “inhibition (INH)” value (Trypanosoma cruzi [10]) was 38% and the selectivity ratio [11] was 24.6. For the same molecule, the Activity (Mus musculus [28]) was 30%, the IC50 (Vero) was 148 µM and the “inhibition (INH)” value (Trypanosoma cruzi [13]) was 45%. For the same molecule, the “inhibition (INH)” value (Trypanosoma cruzi [15]) was 61%, the Activity (Trypanosoma cruzi [16]) was -21.6% and the Activity (Mus musculus [18]) was 40%. The Activity (Trypanosoma cruzi [19]) was -7.9%, the Activity (Trypanosoma cruzi [20]) was “Active” and the selectivity ratio [22] was 13.3. The Activity (Mus musculus [23]) was less than 10%, the Activity (Mus musculus [24]) was “Non-toxic” and the IC50 (Trypanosoma cruzi [25]) was 21.1 µM. It also gave an Activity (Mus musculus [29]) of 30%, an Activity (Mus musculus [30]) of 10% and an Activity (Mus musculus [31]) of less than 10%.
